Measured values taken from PubChem BioAssay (NCI).
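Results reflect a 48-hour exposure of cells in 96-well plates to compound at five concentrations. TGI denotes the concentration required for complete inhibition of growth.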

Experiments:
Assay in all cases: NCI anticancer screen, dose series, 48 h
LOX IMVI melanoma = system: LOX IMVI melanoma
PC-3 prostate = system: PC-3 prostate
K-562 leukemia = system: K-562 leukemia
KM12 colon = system: KM12 colon
DU-145 prostate = system: DU-145 prostate
A498 renal = system: A498 renal
COLO 205 colon = system: COLO 205 colon
OVCAR-3 ovarian = system: OVCAR-3 ovarian
NCI-H226 lung = system: NCI-H226 lung
MDA-N = system: MDA-N
HL-60(TB) leukemia = system: HL-60(TB) leukemia
SW-620 colon = system: SW-620 colon
SNB-75 CNS = system: SNB-75 CNS
NCI-H23 lung = system: NCI-H23 lung
RPMI-8226 leukemia = system: RPMI-8226 leukemia
SK-OV-3 ovarian = system: SK-OV-3 ovarian
UO-31 renal = system: UO-31 renal
CCRF-CEM leukemia = system: CCRF-CEM leukemia
TK-10 renal = system: TK-10 renal
SF-295 CNS = system: SF-295 CNS
ACHN renal = system: ACHN renal
786-0 renal = system: 786-0 renal
SK-MEL-5 melanoma = system: SK-MEL-5 melanoma
IGROV1 ovarian = system: IGROV1 ovarian
U251 CNS = system: U251 CNS
RXF 393 renal = system: RXF 393 renal
SNB-19 CNS = system: SNB-19 CNS
MCF7 breast = system: MCF7 breast
CAKI-1 renal = system: CAKI-1 renal
SF-539 CNS = system: SF-539 CNS
MDA-MB-435 = system: MDA-MB-435
HT29 colon = system: HT29 colon
MALME-3M melanoma = system: MALME-3M melanoma
NCI-H460 lung = system: NCI-H460 lung
OVCAR-8 ovarian = system: OVCAR-8 ovarian
SK-MEL-28 melanoma = system: SK-MEL-28 melanoma
OVCAR-4 ovarian = system: OVCAR-4 ovarian
M14 melanoma = system: M14 melanoma
NCI/ADR-RES ovarian = system: NCI/ADR-RES ovarian
MOLT-4 leukemia = system: MOLT-4 leukemia
UACC-257 melanoma = system: UACC-257 melanoma
HCT-15 colon = system: HCT-15 colon
HCC-2998 colon = system: HCC-2998 colon
SR leukemia = system: SR leukemia
HOP-62 NSCLC = system: HOP-62 NSCLC
EKVX NSCLC = system: EKVX NSCLC
SF-268 CNS = system: SF-268 CNS
SN12C renal = system: SN12C renal
A549 NSCLC = system: A549 NSCLC
HCT-116 colon = system: HCT-116 colon
OVCAR-5 ovarian = system: OVCAR-5 ovarian
HS 578T breast = system: HS 578T breast
HOP-92 NSCLC = system: HOP-92 NSCLC
UACC-62 melanoma = system: UACC-62 melanoma
T-47D breast = system: T-47D breast
MDA-MB-231 breast = system: MDA-MB-231 breast
NCI-H522 lung = system: NCI-H522 lung
SK-MEL-2 melanoma = system: SK-MEL-2 melanoma

Measured: TGI

CN(C)CCOc1ccc2[nH]c(C(=O)N3CC(CCl)c4c3cc([N+](=O)[O-])c3ccccc43)cc2c1 (stereo not drawn)
3.77 µM: SNB-75 CNS
> 100 µM: LOX IMVI melanoma | PC-3 prostate | K-562 leukemia | COLO 205 colon | NCI-H226 lung | HL-60(TB) leukemia | SW-620 colon | NCI-H23 lung | RPMI-8226 leukemia | UO-31 renal | CCRF-CEM leukemia
20.2 µM: DU-145 prostate
3.68 µM: OVCAR-3 ovarian
85.5 µM: SK-OV-3 ovarian
48.5 µM: MDA-N
24.5 µM: A498 renal
3.2 µM: KM12 colon

CCOC(=O)NC(Nc1ccc(S(=O)(=O)Nc2ccc(OC)nn2)cc1)(C(F)(F)F)C(F)(F)F
32 µM: SK-MEL-5 melanoma
> 100 µM: SF-295 CNS | PC-3 prostate | K-562 leukemia | KM12 colon | SNB-19 CNS | DU-145 prostate | MCF7 breast | CAKI-1 renal | HT29 colon | NCI-H460 lung | MDA-N | OVCAR-8 ovarian | OVCAR-4 ovarian | SW-620 colon | HCT-15 colon | HCC-2998 colon | EKVX NSCLC | SF-268 CNS | A549 NSCLC | SNB-75 CNS | OVCAR-5 ovarian | HS 578T breast | UACC-62 melanoma | T-47D breast | SK-OV-3 ovarian | UO-31 renal
36.5 µM: SF-539 CNS
75.9 µM: NCI-H226 lung
96.4 µM: NCI-H23 lung
41 µM: U251 CNS
54.8 µM: RPMI-8226 leukemia
58.2 µM: HL-60(TB) leukemia
83.9 µM: SN12C renal
49.5 µM: MOLT-4 leukemia
54.6 µM: A498 renal
90.7 µM: ACHN renal
55.8 µM: SR leukemia
59 µM: 786-0 renal
73.2 µM: HOP-92 NSCLC
59.9 µM: NCI/ADR-RES ovarian
38.1 µM: MDA-MB-231 breast
34.8 µM: RXF 393 renal
68.8 µM: TK-10 renal
55.7 µM: OVCAR-3 ovarian
54 µM: IGROV1 ovarian
82 µM: LOX IMVI melanoma
98.6 µM: UACC-257 melanoma
35.8 µM: MDA-MB-435
55.6 µM: SK-MEL-28 melanoma
59.6 µM: HOP-62 NSCLC
40.2 µM: MALME-3M melanoma
58.7 µM: COLO 205 colon
70.4 µM: CCRF-CEM leukemia
50.4 µM: M14 melanoma
44.5 µM: HCT-116 colon

O=[N+]([O-])c1cnc(N(CCO)CCO)s1
0.341 µM: SNB-75 CNS
> 100 µM: SF-295 CNS | LOX IMVI melanoma | ACHN renal | 786-0 renal | NCI-H522 lung | SK-MEL-5 melanoma | IGROV1 ovarian | PC-3 prostate | U251 CNS | RXF 393 renal | K-562 leukemia | KM12 colon | SNB-19 CNS | DU-145 prostate | MCF7 breast | CAKI-1 renal | A498 renal | COLO 205 colon | SF-539 CNS | MDA-MB-435 | HT29 colon | MALME-3M melanoma | OVCAR-3 ovarian | NCI-H226 lung | NCI-H460 lung | MDA-N | HL-60(TB) leukemia | OVCAR-8 ovarian | SK-MEL-28 melanoma | OVCAR-4 ovarian | SW-620 colon | M14 melanoma | NCI/ADR-RES ovarian | MOLT-4 leukemia | UACC-257 melanoma | HCT-15 colon | HCC-2998 colon | SR leukemia | HOP-62 NSCLC | EKVX NSCLC | SF-268 CNS | SN12C renal | A549 NSCLC | HCT-116 colon | OVCAR-5 ovarian | NCI-H23 lung | HOP-92 NSCLC | UACC-62 melanoma | T-47D breast | SK-MEL-2 melanoma | SK-OV-3 ovarian | UO-31 renal | MDA-MB-231 breast | CCRF-CEM leukemia

CC(C)(Oc1ccc(C(=O)c2ccc(Cl)cc2)cc1Cl)C(=O)N1CCN(CCO)CC1
> 10 µM: TK-10 renal | SF-295 CNS | LOX IMVI melanoma | 786-0 renal | SK-MEL-5 melanoma | IGROV1 ovarian | PC-3 prostate | RXF 393 renal | K-562 leukemia | KM12 colon | DU-145 prostate | MCF7 breast | CAKI-1 renal | COLO 205 colon | HT29 colon | MALME-3M melanoma | MDA-N | HL-60(TB) leukemia | OVCAR-8 ovarian | SK-MEL-28 melanoma | SW-620 colon | M14 melanoma | MOLT-4 leukemia | UACC-257 melanoma | HCT-15 colon | HCC-2998 colon | SR leukemia | HOP-62 NSCLC | EKVX NSCLC | SN12C renal | A549 NSCLC | SNB-75 CNS | NCI-H23 lung | RPMI-8226 leukemia | UACC-62 melanoma | T-47D breast | SK-OV-3 ovarian | MDA-MB-231 breast | CCRF-CEM leukemia

COC(C)(C)[C@@H]1CCCN1C1=C(C)C(=O)OC1
> 100 µM: SF-295 CNS | LOX IMVI melanoma | ACHN renal | 786-0 renal | SK-MEL-5 melanoma | IGROV1 ovarian | PC-3 prostate | U251 CNS | RXF 393 renal | K-562 leukemia | SNB-19 CNS | DU-145 prostate | MCF7 breast | CAKI-1 renal | COLO 205 colon | SF-539 CNS | MALME-3M melanoma | NCI-H460 lung | MDA-N | HL-60(TB) leukemia | NCI/ADR-RES ovarian | MOLT-4 leukemia | HCT-15 colon | HCC-2998 colon | SR leukemia | HOP-62 NSCLC | SF-268 CNS | SN12C renal | HCT-116 colon | OVCAR-5 ovarian | NCI-H23 lung | RPMI-8226 leukemia | HS 578T breast | UACC-62 melanoma | T-47D breast | SK-MEL-2 melanoma | SK-OV-3 ovarian | UO-31 renal | MDA-MB-231 breast | CCRF-CEM leukemia
